The record followed here is ChEMBL document CHEMBL1155464, “Potent tricyclic pyrazole tetrazole agonists of the nicotinic acid receptor (GPR109a)” (Bioorg Med Chem Lett, 2010).

The target of data set [1] is Hydroxycarboxylic acid receptor 3 (Homo sapiens) (UniProt P49019). Description: Agonist activity at GPR109b. The data set is classed as functional.
Data set [2] has the same target. Kind of data set: Agonist activity at GPR109b at 5 to 10 uM. The data set is classed as functional.
The subject of data set [3] is Mus musculus. Kind of data set: Antidyslipidemic activity in po dosed mouse assessed as reduction of plasma free fatty acids. Type of data set: functional.
Data set [4] in a line: Antidyslipidemic activity in human adipocytes assessed as inhibition of isoproteranol-induced production of free fatty acids. The note with it: Adipocyte.
For data set [5], the species on record is Mus musculus. Kind of data set: Inhibition of niacin-induced vasodilation in mouse. Type of data set: functional, organism-based.
For data set [6], the species on record is Mus musculus. Description: Inhibition of prostaglandin-induced vasodilation in mouse. Type of data set: functional, organism-based.
The test system of data set [7] is Mus musculus. Description: Induction of vasodilation in mouse assessed as laser doppler changes in ears at 100 mg/kg. The data set is classed as functional, organism-based. The arrangement: dose 100 mg/kg.
The nature of data set [8]: Volume of distribution at steady state in monkey at 3 mg/kg, iv and 10 mg/kg, po. The note with it: rhesus monkey, in vivo, read-out: Vdss. The data set is classed as ADME, organism-based, Macaca mulatta.
The nature of data set [9]: Plasma clearance in monkey at 3 mg/kg, iv and 10 mg/kg, po. Type of data set: ADME, organism-based, Macaca mulatta. The note with it: rhesus monkey.
The nature of data set [10]: Cmax in rat at 3 mg/kg, iv and 10 mg/kg, po. Type of data set: ADME, organism-based. As to conditions: in vivo.
Data set [11] can be described thus: Oral bioavailability in dog at 10 mg/kg. The data set is classed as ADME, organism-based, Canis lupus familiaris. The note with it: in vivo.
Data set [12] can be described thus: Cmax in mouse at 3 mg/kg, iv and 10 mg/kg, po. The note with it: in vivo. Type of data set: ADME, organism-based.
Data set [13] in a line: Half life in dog at 3 mg/kg, iv and 10 mg/kg, po. Type of data set: ADME, organism-based, Canis lupus familiaris. As to conditions: in vivo.
Data set [14] in a line: Plasma clearance in mouse at 3 mg/kg, iv and 10 mg/kg, po. The data set is classed as ADME, organism-based.
Data set [15] in a line: Oral bioavailability in monkey at 10 mg/kg. Type of data set: ADME, organism-based, Macaca mulatta. The note with it: rhesus monkey, in vivo.
Data set [16] can be described thus: Cmax in monkey at 3 mg/kg, iv and 10 mg/kg, po. The note with it: rhesus monkey, in vivo. The data set is classed as ADME, organism-based, Macaca mulatta.
A short description of data set [17]: Half life in rat at 3 mg/kg, iv and 10 mg/kg, po. The note with it: in vivo. The data set is classed as ADME, organism-based.
The nature of data set [18]: Volume of distribution at steady state in dog at 3 mg/kg, iv and 10 mg/kg, po. The data set is classed as ADME, organism-based, Canis lupus familiaris. The note with it: in vivo, read-out: Vdss.
Data set [19] can be described thus: Cmax in dog at 3 mg/kg, iv and 10 mg/kg, po. The data set is classed as ADME, organism-based, Canis lupus familiaris. The note with it: in vivo.
Data set [20] is described as follows: Oral bioavailability in mouse at 10 mg/kg. The data set is classed as ADME, organism-based. The note with it: in vivo.
Data set [21] can be described thus: Plasma clearance in dog at 3 mg/kg, iv and 10 mg/kg, po. Type of data set: ADME, organism-based, Canis lupus familiaris.
Data set [22] can be described thus: Oral bioavailability in rat at 10 mg/kg. As to conditions: in vivo. Type of data set: ADME, organism-based.
Data set [23] can be described thus: Plasma clearance in rat at 3 mg/kg, iv and 10 mg/kg, po. The data set is classed as ADME, organism-based.
A short description of data set [24]: Half life in mouse at 3 mg/kg, iv and 10 mg/kg, po. Type of data set: ADME, organism-based. As to conditions: in vivo.
A short description of data set [25]: Volume of distribution at steady state in rat at 3 mg/kg, iv and 10 mg/kg, po. The data set is classed as ADME, organism-based. The note with it: in vivo, read-out: Vdss.
Data set [26] in a line: Half life in monkey at 3 mg/kg, iv and 10 mg/kg, po. The data set is classed as ADME, organism-based, Macaca mulatta. As to conditions: rhesus monkey, in vivo.
The nature of data set [27]: Volume of distribution at steady state in mouse at 3 mg/kg, iv and 10 mg/kg, po. The data set is classed as ADME, organism-based. As to conditions: in vivo, read-out: Vdss.

Calls of active or inactive are those of the source.

Hydroxycarboxylic acid receptor 3 (Homo sapiens), sequence (P49019 whole entry): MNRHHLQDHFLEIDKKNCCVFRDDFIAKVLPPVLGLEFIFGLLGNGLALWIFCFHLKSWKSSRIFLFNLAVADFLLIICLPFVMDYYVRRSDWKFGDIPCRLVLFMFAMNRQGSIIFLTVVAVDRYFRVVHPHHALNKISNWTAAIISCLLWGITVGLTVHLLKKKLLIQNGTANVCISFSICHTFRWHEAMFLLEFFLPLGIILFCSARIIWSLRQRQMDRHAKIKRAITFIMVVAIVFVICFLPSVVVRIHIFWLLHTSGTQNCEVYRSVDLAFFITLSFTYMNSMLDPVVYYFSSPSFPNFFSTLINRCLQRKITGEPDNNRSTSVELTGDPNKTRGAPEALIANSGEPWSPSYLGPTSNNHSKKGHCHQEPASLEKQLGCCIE

`CCC[C@@H]1[C@H]2Cc3c(-c4nnn[nH]4)n[nH]c3[C@@H]12`: the result in [1] was inactive. Besides, in data set [2], the result was Active.
Regarding `CCCCC[C@@H]1[C@H]2Cc3c(-c4nnn[nH]4)n[nH]c3[C@@H]12`, the outcome in data set [1] was inactive.
`CC[C@@H]1[C@H]2Cc3c(-c4nnn[nH]4)n[nH]c3[C@@H]12`: the result in data set [1] was inactive.
`C1Cc2[nH]nc(-c3nn[nH]n3)c2C1`: the result in [1] was inactive. Besides, the ED50 (as a rule, the midpoint of the dose-response relation) in the data set with Mus musculus [3] was 3.1 mg/kg. Further, the IC50 (commonly the midpoint of a concentration-inhibition curve) in [4] amounted to 870 nM.
For the compound `C=C[C@@H]1[C@H]2Cc3c(-c4nnn[nH]4)n[nH]c3[C@@H]12`, the result in data set [1] was inactive.
Turning to `CC(C)C[C@@H]1[C@H]2Cc3c(-c4nnn[nH]4)n[nH]c3[C@H]21`, the result in data set [1] was inactive. Also, the result in [2] was Active.
For the compound `C[C@H]1[C@H]2Cc3c(-c4nnn[nH]4)n[nH]c3[C@@H]12`, the outcome in data set [1] was inactive.
As to `C1c2c(-c3nnn[nH]3)n[nH]c2[C@H]2C[C@@H]12` (stereo in doubt; (-)17a), in [1], the outcome was inactive.
Regarding `C1c2c(-c3nnn[nH]3)n[nH]c2C2CC12` (racemic), in data set [1], the outcome was inactive.
`O=C(O)c1cccnc1` [NIACIN]: the result in data set [1] was inactive. The IC50 in data set [4] worked out at 60 nM.
`C1c2c(-c3nnn[nH]3)n[nH]c2[C@H]2C[C@@H]12` (stereo in doubt; (+)17a): the result (in [1]; in the data set listed under Mus musculus [6]; with Mus musculus [7]) was inactive. The outcome in the data set listed under Mus musculus [5] was Active.
Turning to `C/C=C/[C@@H]1[C@H]2Cc3c(-c4nnn[nH]4)n[nH]c3[C@@H]12`, in data set [1], the result was inactive.
`CC(C)C[C@H]1C2Cc3c(-c4nnn[nH]4)n[nH]c3[C@H]21` (stereo not given in full): in [1], the outcome was inactive.
On the same count and under the same terms, as for `CC1(C)[C@@H]2c3[nH]nc(-c4nnn[nH]4)c3C[C@@H]21`, the entry is “inactive”.
The same measure, in the same setting: under `C=CC[C@H]1[C@H]2Cc3c(-c4nnn[nH]4)n[nH]c3[C@H]21` stands “inactive”.
On to `CCCC[C@@H]1[C@H]2Cc3c(-c4nnn[nH]4)n[nH]c3[C@@H]12`, for which the result in [1] was inactive. The result in data set [2] was Active.
`C1CCC2(C1)[C@@H]1c3[nH]nc(-c4nnn[nH]4)c3C[C@@H]12`: the outcome in data set [1] was inactive.
On the same count and under the same terms, under `CC(C)CC[C@@H]1C2Cc3c(-c4nnn[nH]4)n[nH]c3[C@H]21` (stereo not given in full) stands “inactive”; under `C1CC1[C@@H]1[C@H]2Cc3c(-c4nnn[nH]4)n[nH]c3[C@H]21`, “inactive”.
For `C=C[C@H]1[C@H]2Cc3c(-c4nnn[nH]4)n[nH]c3[C@@H]12`, the result in data set [1] was inactive.
The same measure, in the same setting: as for `C=CC[C@@H]1[C@H]2Cc3c(-c4nnn[nH]4)n[nH]c3[C@@H]12`, the entry is “inactive”.
On the same count and under the same terms, under `CCCCC[C@H]1[C@H]2Cc3c(-c4nnn[nH]4)n[nH]c3[C@H]21` stands “inactive”.
`C1c2c(-c3nnn[nH]3)n[nH]c2[C@H]2C[C@@H]12` (stereo in doubt; (+)17a) [3-(1H-TETRAZOL-5-YL)-4,4A,5,5A-TETRAHYDRO-1H-CYCLOPROPA[4,5]CYCLOPENTA[1,2-C]PYRAZOLE (STRUCTURAL MIX)]: the Vd is 0.96 L/kg in data set [8], 0.53 L/kg in data set [18], 0.34 L/kg in [25] and 3.4 L/kg in data set [27]. Moreover, the clearance in data set [9] turned out to be 13.9 mL/min/kg; in [14], 61.6 mL/min/kg; in [21], 12.4 mL/min/kg; in data set [23], 25.5 mL/min/kg. Also, the Cmax (as a rule, the peak of the concentration-time curve) in [10] was determined as 4.9 µM; in data set [12], 2 µM; in data set [16] it was 11.7 µM; in data set [19], 36.9 µM. In addition, the ED50 in the data set with Mus musculus [3] was 0.52 mg/kg. Also, in data set [4], the IC50 was 90 nM. Besides, the bioavailability – broadly, dose-corrected exposure relative to a reference, in per cent – was over 100% in data set [11], over 100% in data set [15], 97% in data set [20] and 37% in data set [22]. The half-life (as a rule, the time needed for the level to fall by half in the phase considered) in [13] is 1.9 h; in [17], 1.9 h; in data set [24], 2.4 h; in data set [26], 7.3 h.
Turning to `COC[C@@H]1[C@H]2Cc3c(-c4nnn[nH]4)n[nH]c3[C@@H]12`, in data set [1], the outcome was inactive.
On to `C[C@@H]1[C@H]2Cc3c(-c4nnn[nH]4)n[nH]c3[C@@H]12`, for which the result in data set [1] was inactive.
